Assay [1] deals with T1, HIV-1 protease (Human immunodeficiency virus type 1 group M subtype B, UniProt P04585). Kind of assay: biochemical. The following applies: read-out: HIV-1 FITC KI. A digest of the protocol:
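Enzyme (40 nM stock) and substrate (200 μM stock) incubated with inhibitor, 24–48 two-fold serial concentrations, for 90 min at room temperature, then quenched with avidin beads. Nonlinear least-squares analysis gives Ki; a known-Ki inhibitor validates each run.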

In assay [2] the target is T1, HIV-1 protease. Kind of assay: biochemical. The following applies: for inhibition at 0.123 µM: read-out: HIV-1 Protease % Inhib, dose 0.123 uM; for inhibition at 0.37 µM: read-out: HIV-1 Protease % Inhib, dose 0.370 uM; for inhibition at 1.1 µM: read-out: HIV-1 Protease % Inhib, dose 1.100 uM; for inhibition at 3.3 µM: read-out: HIV-1 Protease % Inhib, dose 3.300 uM; for inhibition at 10 µM: read-out: HIV-1 Protease % Inhib, dose 10.000 uM; for inhibition at 30 µM: read-out: HIV-1 Protease % Inhib, dose 30.000 uM. A digest of the protocol: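 Percent inhibition derived from fluorescent cleavage product separated by filtration after streptavidin-bead capture of intact biotin/FITC substrate. Reaction: enzyme (10 μl, 0.1 μM stock) with substrate (20 μl, 0.2 μM stock) and compound, 1 h at room temperature in dark, pH 5.5 acetate buffer with 1.0 M NaCl and 0.05% NP-40.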

Consider six molecules from patent US5686486A, “4-hydroxy-benzopyran-2-ones and 4-hydroxy-cycloalkyl[b]pyran-2-ones useful to treat retroviral infections” (priority 1995, dated 1997).

Where “and” joins values, the source holds several entries; their conditions need not be identical. Identical values can stand only once.

The term Ki denotes the dissociation constant of the complex between target and ligand, obtained from inhibition or displacement.

Consider `CN(C)c1ccc(N=Nc2ccc(S(=O)(=O)Nc3cccc(C(c4c(O)c5c(oc4=O)CCCCCC5)C4CC4)c3)cc2)cc1` (stereo not drawn) [Example 309, N-[3-[Cyclopropyl(5,6,7,8,9,10-hexahydro-4-hydroxy-2-oxo-2H-cycloocta[b]pyran-3-yl)methyl]phenyl]-4-[[4-(dimethylamino)phenyl]azo]-benzenesulfonamide], for which the Ki in assay [1] worked out at 5.8 nM. In assay [2], the inhibition at 0.123 µM is 46.6%, the inhibition at 0.37 µM is 67.5%, the inhibition at 1.1 µM amounted to 82.5% and the inhibition at 3.3 µM is 76.5%. Besides, in assay [2], the inhibition at 10 µM came to 43.7% and the inhibition at 30 µM came to 19.2%.
Consider `O=c1oc2c(c(O)c1C(c1cccc(NS(=O)(=O)c3ccc(-c4ccccn4)s3)c1)C1CC1)CCCCCC2` (stereo not drawn) [Example 310, N-[3-[Cyclopropyl(5,6,7,8,9,10-hexahydro4-hydroxy-2-oxo-2H-cycloocta[b]pyran-3-yl)methyl]phenyl]-5-(2-pyridinyl)-2-thiophenesulfonamide], for which the Ki in assay [1] was 2.37 nM. Moreover, in assay [2], the inhibition at 0.123 µM turned out to be 46.2%, the inhibition at 0.37 µM was found to be 86.2%, the inhibition at 1.1 µM is 94.9% and the inhibition at 3.3 µM stood at 99%. Besides, in assay [2], the inhibition at 10 µM is 103% and the inhibition at 30 µM was 102%.
`Cc1c(Cl)cccc1S(=O)(=O)Nc1cccc(C(c2c(O)c3c(oc2=O)CCCCCC3)C2CC2)c1` (stereo not drawn) [Example 311, 3-Chloro-N-[3-[cyclopropyl(5,6,7,8,9,10-hexahydro-4-hydroxy-2-oxo-2H-cycloocta[b]pyran-3-yl)methyl]phenyl]-2-methyl-benzenesulfonamide]: the Ki in assay [1] stood at 6.33 nM. For the same molecule, in assay [2], the inhibition at 0.123 µM was determined as 20.8%, the inhibition at 0.37 µM was 71.2%, the inhibition at 1.1 µM is 86.4% and the inhibition at 3.3 µM is 92%. In assay [2], the inhibition at 10 µM was 99.5% and the inhibition at 30 µM is 99.5%.
As for `O=c1oc2c(c(O)c1C(c1cccc(NS(=O)(=O)c3ccc(OC(F)(F)F)cc3)c1)C1CC1)CCCCCC2` (stereo not drawn) [Example 312, N-[3-[Cyclopropyl(5,6,7,8,9,10-hexahydro-4-hydroxy-2-oxo-2-cycloocta[b]pyran-3-yl)methyl]phenyl]-4-(trifluoromethoxy)-benzenesulfonamide], the Ki in assay [1] stood at 4 nM. For the same molecule, in assay [2], the inhibition at 0.123 µM is 48.2%, the inhibition at 0.37 µM turned out to be 83.6%, the inhibition at 1.1 µM amounted to 89.7% and the inhibition at 3.3 µM was found to be 106%. For the same molecule, in assay [2], the inhibition at 10 µM amounted to 114% and the inhibition at 30 µM amounted to 110%.
On to `O=c1oc2c(c(O)c1C(c1cccc(NS(=O)(=O)c3cccc(NS(=O)(=O)CCCCl)c3)c1)C1CC1)CCCCCC2` (stereo not drawn) [Example 313], for which the Ki in assay [1] turned out to be 1.17 nM. In assay [2], the inhibition at 0.123 µM was 104%, the inhibition at 0.37 µM was 96.5%, the inhibition at 1.1 µM is 101% and the inhibition at 3.3 µM was 100%. In assay [2], the inhibition at 10 µM was determined as 106% and the inhibition at 30 µM amounted to 102%.
`O=c1oc2c(c(O)c1C(c1cccc(NS(=O)(=O)c3cccnc3)c1)C1CC1)CCCCCC2` (stereo not drawn) [Example 314, N-[3-[Cyclopropyl(5,6,7,8,9,10-hexahydro-4-hydroxy-2-oxo-2H-cylcloocta[b]pyran-3-yl)methyl]phenyl]-3-pyridinesulfonamide]: the Ki in assay [1] was 2.31 nM and 2.01 nM. In assay [2], the inhibition at 0.123 µM turned out to be 79.5%, the inhibition at 0.37 µM amounted to 97.7%, the inhibition at 1.1 µM was 108% and the inhibition at 3.3 µM amounted to 109%. Moreover, in assay [2], the inhibition at 10 µM turned out to be 102% and the inhibition at 30 µM was determined as 97.1%.
